In patent US20260015350A1, “AZAQUINAZOLINE PAN-KRAS INHIBITORS” (Mirati Therapeutics, Inc., priority 2022, published 2026):

Key:
[1] = system: KRas-mediated phosphorylation of ERK in H460 cells; assay: Inhibition of KRas-mediated phosphorylation of ERK (Cisbio HTRF pERK), H460 cells; assay type: cell-based; details: Homo sapiens, NCI-H460, HTRF pERK
In short: (§1)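 Phosphorylated ERK was quantified by HTRF using d2-conjugate and Cryptate antibodies added to lysates for 2 hrs at room temperature.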

KRas^WT = target: T1, KRas^WT (Homo sapiens, UniProt P01116); assay: KRas binding assay (TR-FRET tracer displacement), KRas WT; details: for IC50: TR-FRET tracer displacement, KRas WT
T1 construct: Biotinylated KRas (corresponding to amino acids 1-169, produced at Accelegan Inc.); biotin (biotinylated); purchased Accelegan Inc

KRas^G13D = target: T2, KRas^G13D (Homo sapiens, UniProt P01116, G13D); assay: KRas binding assay (TR-FRET tracer displacement), KRas G13D; details: for IC50: TR-FRET tracer displacement, KRas G13D
T2 construct: Biotinylated KRas (corresponding to amino acids 1-169, produced at Accelegan Inc.); biotin (biotinylated); purchased Accelegan Inc

[2] = system: KRas-mediated phosphorylation of ERK in MKN1 cells; assay: Inhibition of KRas-mediated phosphorylation of ERK (Cisbio HTRF pERK), MKN1 cells; assay type: cell-based; details: Homo sapiens, MKN-1
In short: (§2)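 Seeding density was 6,000 cells/well; medium RPMI, 10% FBS. Read-out by homogeneous time-resolved fluorescence (pERK) after 4 hours covered at room temperature.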

[3] = system: KRas-mediated phosphorylation of ERK in H358 cells; assay: Inhibition of KRas-mediated phosphorylation of ERK (Cisbio HTRF pERK), H358 cells; assay type: cell-based; details: Homo sapiens; for IC50: NCI-H358, HTRF pERK
In short: as §1

KRas^Q61H = target: T3, KRas^Q61H (Homo sapiens, UniProt P01116, Q61H); assay: KRas binding assay (TR-FRET tracer displacement), KRas Q61H; details: for IC50: TR-FRET tracer displacement, KRas Q61H
T3 construct: Biotinylated KRas (corresponding to amino acids 1-169, produced at Accelegan Inc.); biotin (biotinylated); purchased Accelegan Inc

KRas^G12D = target: T4, KRas^G12D (Homo sapiens, UniProt P01116, G12D); assay: KRas binding assay (TR-FRET tracer displacement), KRas G12D
T4 construct: Biotinylated KRas (corresponding to amino acids 1-169, produced at Accelegan Inc.); biotin (biotinylated); purchased Accelegan Inc

KRas^G12S = target: T5, KRas^G12S (Homo sapiens, UniProt P01116, G12S); assay: KRas binding assay (TR-FRET tracer displacement), KRas G12S; details: for IC50: TR-FRET tracer displacement, KRas G12S
T5 construct: Biotinylated KRas (corresponding to amino acids 1-169, produced at Accelegan Inc.); biotin (biotinylated); purchased Accelegan Inc

[4] = system: KRas-mediated phosphorylation of ERK in AsPC-1 cells; assay: Inhibition of KRas-mediated phosphorylation of ERK (Cisbio HTRF pERK), AsPC-1 cells; assay type: cell-based; details: Homo sapiens, ASPC1, AsPC-1 cells; HTRF pERK
In short: as §1

KRas^G12R = target: T6, KRas^G12R (Homo sapiens, UniProt P01116, G12R); assay: KRas binding assay (TR-FRET tracer displacement), KRas G12R
T6 construct: Biotinylated KRas (corresponding to amino acids 1-169, produced at Accelegan Inc.); biotin (biotinylated); purchased Accelegan Inc

[5] = system: KRas-mediated phosphorylation of ERK in H727 cells; assay: Inhibition of KRas-mediated phosphorylation of ERK (Cisbio HTRF pERK), H727 cells; assay type: cell-based; details: Homo sapiens, NCI-H727, H727 cells; HTRF pERK
In short: as §1

KRas^G12C = target: T7, KRas^G12C (Homo sapiens, UniProt P01116, G12C); assay: KRas binding assay (TR-FRET tracer displacement), KRas G12C; details: for IC50: TR-FRET tracer displacement, KRas G12C
T7 construct: Biotinylated KRas (corresponding to amino acids 1-169, produced at Accelegan Inc.); biotin (biotinylated); purchased Accelegan Inc

KRas^G12V = target: T8, KRas^G12V (Homo sapiens, UniProt P01116, G12V); assay: KRas binding assay (TR-FRET tracer displacement), KRas G12V
T8 construct: Biotinylated KRas (corresponding to amino acids 1-169, produced at Accelegan Inc.); biotin (biotinylated); purchased Accelegan Inc

[6] = system: KRas-mediated phosphorylation of ERK in A549 cells; assay: Inhibition of KRas-mediated phosphorylation of ERK (Cisbio HTRF pERK), A549 cells; assay type: cell-based; details: Homo sapiens; for IC50: HTRF pERK
In short: (§3)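 Compound treatment lasts 3 hrs on 6,000 seeded cells, testing 10 doses from a 10 uM top concentration in 3-fold decrements at 0.8% final DMSO. Trametinib at 0.2 uM defines the Min signal. Detection is HTRF on cold-lysed cell extracts.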

KRas^G12A = target: T9, KRas^G12A (Homo sapiens, UniProt P01116, G12A); assay: KRas binding assay (TR-FRET tracer displacement), KRas G12A; details: for IC50: TR-FRET tracer displacement, KRas G12A
T9 construct: Biotinylated KRas (corresponding to amino acids 1-169, produced at Accelegan Inc.); biotin (biotinylated); purchased Accelegan Inc

[7] = system: KRas-mediated phosphorylation of ERK in PSN1 cells; assay: Inhibition of KRas-mediated phosphorylation of ERK (Cisbio HTRF pERK), PSN1 cells; assay type: cell-based; details: Homo sapiens
In short: as §2

[8] = system: KRas-mediated phosphorylation of ERK in HCT116 cells; assay: Inhibition of KRas-mediated phosphorylation of ERK (Cisbio HTRF pERK), HCT116 cells; assay type: cell-based; details: Homo sapiens, HCT-116, HTRF pERK
In short: as §3

[9] = system: KRas-mediated phosphorylation of ERK in H2009 cells; assay: Inhibition of KRas-mediated phosphorylation of ERK (Cisbio HTRF pERK), H2009 cells; assay type: cell-based; details: Homo sapiens, NCI-H2009
Procedure: Inhibition of KRas Phosphorylation of ERK (HTRF) by Exemplary Compounds of Formula (I)
Cisbio HTRF Advanced PERK Assay Catalog #64AERPEH
1. To harvest cells from flask using 0.05% Trypsin/EDTA solution. Add 10 mL of media to stop trypsinizing. Pipette the cells into a conical bottom 50 mL centrifuge tube and centrifuge 5 min×1000 rpm.
2. Re-suspend the cell pellet in media, take a cell count, and then adjust the cell density using fresh media.
3. Seed 6,000 cells into cell culture plate with 50 μL media. […]
4. Incubate cell plate overnight in a 37° C., 5% CO2 incubator.
1. Use Tecan to complete the compound addition. Compounds start from 10 uM top, 3-fold dilution, and 10 doses. The final DMSO concentration is 0.8%. Dispensed 0.2 uM Trametinib as Min control.
2. Incubate cell plate for 3 hrs in the incubator.
Detection with Cisbio pERK HTRF Kit
1. Dilute 1 volume of 4× lysis buffer with 3 volumes of deionized water. Then, add 100× the blocking reagent. Keep lysis buffer on the ice.
2. At the end of the compound treatment, flick-off the media.
3. Add 35 μL of lysis buffer per well using a Multidrop Combi. Then place on a plate agitator shaking at 300 rpm at 4° C. for 40 mins.
4. Make up the HTRF antibody buffer. For each assay plate, mix 50 μL of d2-conjugate antibody with 950 μL of detection buffer. Similarly, mix 50 μL of Cryptate antibody with 950 μL of detection buffer. Then mix the two diluted antibodies together.
5. Dispense 3.4 μL the antibody buffer to wells of an empty assay plate. Seal the plate and centrifuge plate 30 sec×1000 rpm.
6. At the end of the 4° C. lysis, centrifuge the lysate plates 3 mins×1500 rpm.
7. Use the Bravo to transfer 13.6 μL of lysate from cell culture plate to assay plate. Then incubate assay plate for 2 hrs at room temperature.
8. At the end of incubation, read plate on the Envision after centrifuging plate 30 sec×1000 rpm.

[10] = single point, 10 nM compound, TR-FRET

T7 sequence (P01116 1-169 isoform P01116-2 G12C): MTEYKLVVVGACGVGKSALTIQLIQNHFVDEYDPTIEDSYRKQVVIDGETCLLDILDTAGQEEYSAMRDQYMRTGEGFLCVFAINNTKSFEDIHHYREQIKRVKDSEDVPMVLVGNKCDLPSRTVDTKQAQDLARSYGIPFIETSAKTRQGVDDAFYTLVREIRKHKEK
T3 sequence (P01116 1-169 isoform P01116-2 Q61H): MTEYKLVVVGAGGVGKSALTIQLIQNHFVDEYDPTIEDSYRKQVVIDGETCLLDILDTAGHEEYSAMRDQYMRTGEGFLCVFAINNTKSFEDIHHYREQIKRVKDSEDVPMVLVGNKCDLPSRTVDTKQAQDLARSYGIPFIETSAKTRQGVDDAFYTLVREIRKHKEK
T5 sequence (P01116 1-169 isoform P01116-2 G12S): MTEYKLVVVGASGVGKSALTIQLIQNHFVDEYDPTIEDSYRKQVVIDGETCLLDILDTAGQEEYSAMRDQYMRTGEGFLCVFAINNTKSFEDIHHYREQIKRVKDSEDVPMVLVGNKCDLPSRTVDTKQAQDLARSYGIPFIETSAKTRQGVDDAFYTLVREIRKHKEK
T2 sequence (P01116 1-169 isoform P01116-2 G13D): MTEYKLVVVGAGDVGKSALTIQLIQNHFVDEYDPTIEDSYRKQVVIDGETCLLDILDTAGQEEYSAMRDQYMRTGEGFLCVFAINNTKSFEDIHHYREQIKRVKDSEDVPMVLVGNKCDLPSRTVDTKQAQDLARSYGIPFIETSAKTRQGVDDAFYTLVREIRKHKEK
T6 sequence (P01116 1-169 isoform P01116-2 G12R): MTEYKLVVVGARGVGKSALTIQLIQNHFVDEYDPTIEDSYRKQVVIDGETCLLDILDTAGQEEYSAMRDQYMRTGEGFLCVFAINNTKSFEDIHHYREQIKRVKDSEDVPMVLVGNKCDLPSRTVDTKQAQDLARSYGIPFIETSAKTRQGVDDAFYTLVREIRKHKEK
T4 sequence (P01116 1-169 isoform P01116-2 G12D): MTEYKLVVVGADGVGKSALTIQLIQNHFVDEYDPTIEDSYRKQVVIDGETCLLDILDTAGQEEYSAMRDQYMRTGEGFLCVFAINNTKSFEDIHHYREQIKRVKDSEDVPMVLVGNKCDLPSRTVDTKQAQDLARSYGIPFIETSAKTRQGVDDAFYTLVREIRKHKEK
T8 sequence (P01116 1-169 isoform P01116-2 G12V): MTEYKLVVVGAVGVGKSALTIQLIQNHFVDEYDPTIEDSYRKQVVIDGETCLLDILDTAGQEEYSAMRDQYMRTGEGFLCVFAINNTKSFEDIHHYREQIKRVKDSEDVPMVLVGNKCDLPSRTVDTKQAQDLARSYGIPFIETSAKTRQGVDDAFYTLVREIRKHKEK
T1 sequence (P01116 1-169 isoform P01116-2): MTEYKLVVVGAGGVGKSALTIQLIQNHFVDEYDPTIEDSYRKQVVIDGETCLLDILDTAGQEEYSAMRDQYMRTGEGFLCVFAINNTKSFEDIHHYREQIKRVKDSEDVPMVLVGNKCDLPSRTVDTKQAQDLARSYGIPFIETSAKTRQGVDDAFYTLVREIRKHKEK
T9 sequence (P01116 1-169 isoform P01116-2 G12A): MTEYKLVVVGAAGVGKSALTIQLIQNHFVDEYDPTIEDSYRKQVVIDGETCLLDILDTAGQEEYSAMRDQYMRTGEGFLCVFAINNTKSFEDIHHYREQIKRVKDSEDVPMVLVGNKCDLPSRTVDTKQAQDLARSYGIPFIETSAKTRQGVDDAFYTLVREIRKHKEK

Compound	IC50 [1] [nM]	IC50 [2] [nM]	IC50 [3] [nM]	IC50 (KRas^G12D) [nM]	IC50 [4] [nM]	IC50 (KRas^G12R) [nM]	IC50 [5] [nM]	IC50 (KRas^G12V) [nM]	IC50 [6] [nM]	IC50 [7] [nM]	IC50 [8] [nM]	IC50 (KRas^WT) [nM]	IC50 (KRas^G13D) [nM]	IC50 (KRas^Q61H) [nM]	IC50 (KRas^G12S) [nM]	IC50 (KRas^G12C) [nM]	IC50 (KRas^G12A) [nM]	further results
CCc1c(F)ccc2cc3[nH]ncc3c(-c3ncc4c(N5CCC[C@@](C)(O)C5)nc(OC[C@@]56CCCN5C[C@H](F)C6)nc4c3F)c12 [Example 776, (3R)-1-(7-(5-ethyl-6-fluoro-1H-benzo[f]indazol-4-yl)-8-fluoro-2-(((2R,7aS)-2-fluorohexahydro-1H-pyrrolizin-7a-yl)methoxy)pyrido[4,3-d]pyrimidin-4-yl)-3-methylpiperidin-3-ol]	29	16	18	2	18	4	61	2	18	9010	75	–	–	–	–	–	–	inhibition at 0.01 µM (KRas^WT; [10]): 78%; inhibition at 0.01 µM (KRas^G13D; [10]): 84%; inhibition at 0.1 µM ([3]; NCI-H358, 3 h, single point, 100 nM compound, 3 hrs): 84%; inhibition at 0.01 µM (KRas^Q61H; [10]): 80%; inhibition at 0.01 µM (KRas^G12S; [10]): 83%; inhibition at 0.01 µM (KRas^G12C; [10]): 85%; inhibition at 0.1 µM ([6]; A549, 3 h, single point, 100 nM compound, 3 hrs): 60%; inhibition at 0.01 µM (KRas^G12A; [10]): 80%
C#Cc1c(F)ccc2cc(O)cc(-c3ncc4c(N5CCC[C@@](C)(O)C5)nc(OC[C@@]56CCCN5[C@@H](CO)CC6)nc4c3F)c12 [Example 809, (R)-1-(7-(8-ethynyl-7-fluoro-3-hydroxynaphthalen-1-yl)-8-fluoro-2-(((3R,7aS)-3-(hydroxymethyl)tetrahydro-1H-pyrrolizin-7a(5H)-yl)methoxy)pyrido[4,3-d]pyrimidin-4-yl)-3-methylpiperidin-3-ol]	918	57	228	3	871	5	809	4	2560	> 10000	1510	5	3	5	4	3	5	–
C[C@@]1(O)CCCN(c2nc(OCC34CCCN3CCC4)nc3c(F)c(-c4c(C5CC5)c(Cl)cc5[nH]ncc45)ncc23)C1 [Example 876, (3R)-1-(7-(6-chloro-5-cyclopropyl-1H-indazol-4-yl)-8-fluoro-2-((tetrahydro-1H-pyrrolizin-7a(5H)-yl)methoxy)pyrido[4,3-d]pyrimidin-4-yl)-3-methylpiperidin-3-ol]	561	112	234	10	661	22	1560	11	1040	> 10000	1130	17	10	18	13	9	14	–
C[C@@]1(O)CCCN(c2nc(OC[C@@]34CCCN3C[C@H](F)C4)nc3c(F)c(-c4c(C5CC5)c(Cl)cc5[nH]ncc45)ncc23)C1 [Example 880, (3R)-1-(7-(6-chloro-5-cyclopropyl-1H-indazol-4-yl)-8-fluoro-2-(((2R,7aS)-2-fluorotetrahydro-1H-pyrrolizin-7a(5H)-yl)methoxy)pyrido[4,3-d]pyrimidin-4-yl)-3-methylpiperidin-3-ol]	176	24	100	5	153	12	196	6	176	> 10000	520	11	7	12	8	7	9	–
CN(C)C(=O)c1cc2n(n1)CCCN(c1nc(OC[C@@]34CCCN3C[C@H](F)C4)nc3c(F)c(-c4c(C5CC5)c(Cl)cc5[nH]ncc45)ncc13)C2 [Example 882, 5-(7-(6-chloro-5-cyclopropyl-1H-indazol-4-yl)-8-fluoro-2-(((2R,7aS)-2-fluorotetrahydro-1H-pyrrolizin-7a(5H)-yl)methoxy)pyrido[4,3-d]pyrimidin-4-yl)-N,N-dimethyl-5,6,7,8-tetrahydro-4H-pyrazolo[1,5-a][1,4]diazepine-2-carboxamide]	4460	521	429	2	677	8	1300	3	> 10000	> 10000	7110	13	15	15	5	5	9	–
CCc1c(F)ccc2cc(O)cc(-c3ncc4c(N5C[C@@H]6C[C@H](C5)[C@H](O)C6)nc(OC[C@@]56CCCN5C/C(=C\F)C6)nc4c3F)c12 [Example 942, (1R,5R,6R)-3-(7-(8-ethyl-7-fluoro-3-hydroxynaphthalen-1-yl)-8-fluoro-2-(((S,Z)-2-(fluoromethylene)tetrahydro-1H-pyrrolizin-7a(5H)-yl)methoxy)pyrido[4,3-d]pyrimidin-4-yl)-3-azabicyclo[3.2.1]octan-6-ol]	1	–	0.4	–	2	–	1	–	1	–	1	–	–	–	–	–	–	IC50 [9]: 1 nM
C[C@@H]1C[C@@H]1c1c(Cl)cc(O)cc1-c1ncc2c(N3C[C@H]4CC[C@@H](C3)N4)nc(OC[C@@]34CCCN3C/C(=C\F)C4)nc2c1F [Example 946, 3-(4-((1R,5S)-3,8-diazabicyclo[3.2.1]octan-3-yl)-8-fluoro-2-(((S,Z)-2-(fluoromethylene)tetrahydro-1H-pyrrolizin-7a(5H)-yl)methoxy)pyrido[4,3-d]pyrimidin-7-yl)-5-chloro-4-((1S,2R)-2-methylcyclopropyl)phenol]	494	–	212	–	8	–	847	–	984	–	628	–	–	–	–	–	–	IC50 [9]: 229 nM
